Values of other authors, collected in US5932763A, “Inhibition of matrix metalloproteases by 2-(ω-arolalkyl)-4-biaryl-4-oxobutyric acids” (Bayer Corporation, priority 1997, dated 1999).

Assays:
[1] = Child, et al., J. Pharm. Sci., 66, 466, 1977
[2] = test system: human ovarian carcinoma xenografts; settings: mouse, in vivo
human colon tumor = settings: given intraperitoneally; orthotopic model in nude mice

SMILES	activity of fenbufen analogs (described as inactive) [1]	survival of mice bearing human ovarian carcinoma xenografts [2]	human colon tumor growth and spread (human colon tumor)
O=C(O)CC(C(=O)c1ccc(-c2ccccc2)cc1)c1ccccc1 (centres unmarked) [LXXVII]	inactive		
O=C(CC(C(=O)O)c1ccccc1)c1ccc(-c2ccccc2)cc1 (centres unmarked) [XLIX]	inactive		
CC(CC(=O)c1ccc(-c2ccccc2)cc1)C(=O)O (centres unmarked) [XLVII]	inactive		
CNC(=O)[C@H](Cc1ccccc1)NC(=O)[C@H](CC(C)C)[C@H](CSc1cccs1)C(=O)NO [batimastat]		prolongs the survival	inhibits human colon tumor growth and spread
